Assay results taken from patent publication US20090011438A1, “Collagen VI and Cancer” (priority 2004, published 2009).

Legend:
Assay type in all cases: cell-based
Tcf/Lef = assay: TOP FLASH (Tcf/Lef) reporter luciferase assay; settings: MCF-7 cells, 30 μg/ml, 12 hours, vs vehicle
Protocol: (§1) FIG. 4 is graphs and a photograph showing that collagen VI stabilizes β-catenin and cyclin D1. […] A TCF/LEF luciferase reporter construct was transfected into MCF-7 cells and luciferase activity was analyzed after treatment either were vehicle (PBS; black bars), collagen VI (30 μg/ml; white bars) or collagen 1 (30 μg/ml; gray bars) in DME-BSA. […] The serum free medium used in the chase contained vehicle, collagen VI (30 μg/ml) or collagen 1 (30 μg/ml). After each time point, immunoprecipitations were performed for β-catenin and analyzed by SDS-PAGE followed by quantitation of β-catenin at each time point. […] MCF-7 cells were exposed for 3 hours to vehicle, human collagen VI (30 μg/ml) or collagen I (30 μg/ml). Cells were then lysed and analyzed for cyclin D1 by western blot analysis. […] Panel D is a photograph of a western blot showing that collagen VI acts in part through NG2 in MCF-7 cells to stabilize cyclin D1. […] Results are shown as the MEAN±SEM in all cases.
Luciferase Assays. […] Two days prior to the luciferase readout, cells were transiently transfected with the TOPFLASH (contains 4 Tcf/Lef binding elements) luciferase promoter construct as well as a thymidine kinase driven renilla luciferase construct as a transfection control vector (Promega, Madison, Wis.) (Albanese et al., 2003). […]

β-catenin = assay: Metabolic labeling pulse/chase of β-catenin; settings: MCF-7 cells, 30 μg/ml, chase 30 min to 2 hrs
Protocol: as §1
Metabolic Labeling for β-catenin. MCF-7 cells, seeded in 6-well plates, were treated in methionine/cysteine deficient DMEM for 1 hour. […]
Collagen VI prevents degradation of endogenous β-catenin in MCF-7 cells. […] To test this, β-catenin levels were monitored over the course of several hours after a pulse/chase reaction. […]

cyclin D1 = assay: Cyclin D1 levels by western blot; settings: MCF-7 cells, treated five hours, vs vehicle
Protocol: FIG. 4 is graphs and a photograph showing that collagen VI stabilizes β-catenin and cyclin D1. […] A TCF/LEF luciferase reporter construct was transfected into MCF-7 cells and luciferase activity was analyzed after treatment either were vehicle (PBS; black bars), collagen VI (30 μg/ml; white bars) or collagen 1 (30 μg/ml; gray bars) in DME-BSA. […] The serum free medium used in the chase contained vehicle, collagen VI (30 μg/ml) or collagen 1 (30 μg/ml). After each time point, immunoprecipitations were performed for β-catenin and analyzed by SDS-PAGE followed by quantitation of β-catenin at each time point. […] Cells were then lysed and analyzed for cyclin D1 by western blot analysis. […] Panel D is a photograph of a western blot showing that collagen VI acts in part through NG2 in MCF-7 cells to stabilize cyclin D1. […] Results are shown as the MEAN±SEM in all cases.
Immunoblotting. Separation of proteins by sodium dodecyl sulfate (SDS)-poly acrylamide gel electrophoresis (PAGE) fluorography, and immunoblotting were performed as previously described (Scherer et al., 1994). […]
Collagen VI increases cyclin D1 protein stability through NG2/CSPG. […] MCF-7 cells pretreated with the αNG2/CSPG antibody were exposed to collagen VI protein, and cyclin D1 levels were monitored. […]

induction of Tcf/Lef activity (Tcf/Lef): did not activate
Substance: collagen I: Human collagen I obtained from Collaborative Biomedical Products; comparison protein
degradation of 35S-labeled β-catenin (β-catenin): marginal stabilization
cyclin D1 levels (cyclin D1): no significant change
